Reference: paper PMC4949196, “Binding interaction of a gamma-aminobutyric acid derivative with serum albumin: an insight by fluorescence and molecular modeling analysis” (SpringerPlus, 2016)

How the values were obtained:
[1] = biological target: T1, bovine serum albumin (BSA) (Bos taurus, UniProt P02769); test: intrinsic tryptophan fluorescence quenching titration, Langmuir isotherm fit, room temperature, pH […]; format: binding
T1 construct: gene ALB

[2] = biological target: T2, human serum albumin (HSA) (Homo sapiens, UniProt P02768); test: as above; format: binding
T2 construct: gene ALB
T2 sequence (P02768 25-609): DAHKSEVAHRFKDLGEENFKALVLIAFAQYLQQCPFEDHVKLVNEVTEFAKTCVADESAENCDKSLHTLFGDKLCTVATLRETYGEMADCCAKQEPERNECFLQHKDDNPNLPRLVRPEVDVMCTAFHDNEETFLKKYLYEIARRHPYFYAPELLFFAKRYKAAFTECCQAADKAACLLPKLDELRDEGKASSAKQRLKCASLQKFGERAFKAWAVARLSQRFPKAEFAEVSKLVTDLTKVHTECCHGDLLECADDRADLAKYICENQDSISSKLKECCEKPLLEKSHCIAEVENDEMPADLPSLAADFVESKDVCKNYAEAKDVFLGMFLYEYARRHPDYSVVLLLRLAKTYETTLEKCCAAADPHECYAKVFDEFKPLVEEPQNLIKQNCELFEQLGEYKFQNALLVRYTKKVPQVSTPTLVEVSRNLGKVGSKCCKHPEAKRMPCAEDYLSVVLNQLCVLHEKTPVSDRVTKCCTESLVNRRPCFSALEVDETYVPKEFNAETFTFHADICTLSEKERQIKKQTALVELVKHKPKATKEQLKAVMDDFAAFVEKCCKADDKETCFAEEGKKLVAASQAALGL

T1 sequence (P02769 25-607): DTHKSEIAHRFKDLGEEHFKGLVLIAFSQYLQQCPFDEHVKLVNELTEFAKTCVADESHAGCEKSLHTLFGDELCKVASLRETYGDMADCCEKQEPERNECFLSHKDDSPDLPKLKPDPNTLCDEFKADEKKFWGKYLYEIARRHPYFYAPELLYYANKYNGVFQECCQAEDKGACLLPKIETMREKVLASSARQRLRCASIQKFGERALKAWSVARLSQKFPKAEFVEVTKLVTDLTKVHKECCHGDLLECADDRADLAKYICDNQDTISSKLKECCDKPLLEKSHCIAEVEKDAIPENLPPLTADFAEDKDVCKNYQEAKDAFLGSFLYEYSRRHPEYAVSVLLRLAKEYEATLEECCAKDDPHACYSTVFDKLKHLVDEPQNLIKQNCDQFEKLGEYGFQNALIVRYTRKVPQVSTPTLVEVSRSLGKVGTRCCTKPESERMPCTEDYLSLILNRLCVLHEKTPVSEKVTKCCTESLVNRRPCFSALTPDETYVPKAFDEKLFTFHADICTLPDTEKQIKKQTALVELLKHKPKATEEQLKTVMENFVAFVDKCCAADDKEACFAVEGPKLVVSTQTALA

## COC(=O)CCCNC(=O)c1ccc(N(CC(=O)OC(C)(C)C)c2ccc(OC)cc2)cc1 [compound 5, methyl 4-(4-((2-(tert-butoxy)-2-oxoethyl)(4-methoxyphenyl)amino)benzamido)butanoate]
[1]
  Kd: 3.85 µM
[2]
  Kd: 2.75 µM
